# Measured values taken from patent publication US20220233556A1, “COMPOSITIONS AND METHODS FOR TREATING OPHTHALMIC CONDITIONS” (Medicon Pharmaceuticals, Inc., priority 2017, published 2022).
# Read-outs that look alike come from different tables or passages of the source.
# Tests used:
# [1] = Corneal levels of a PS 0.2% solution formulation after single topical application; assay type: in vivo; details: cornea, topical or ocular, 0.2 % PS solution (single application, volume not stated), mean ± SEM
# Experimental: Another embodiment of this type of formulation is: 0.1% PS, 10% HP-β-CD, 4% Tween 80, 2.5% Vitamin E TPGS, 1.4% polyvinyl alcohol (PVA) (13,000-26,000 molecular weight), 0.001% polyquad. Another embodiment of this type of formulation is: 0.2% PS; 10% HP-β-CD; 4% Tween 80; 2.5% Vitamin E TPGS; 1.4% polyvinyl alcohol (PVA) (13,000-26,000 molecular weight); and 0.001% polyquad. Preparation method: PVA was dissolved into water by stirring at 95° C. for 6 h. All ingredients including the PVA solution and PS were added into a glass vial, stirred at 50° C. (in a water bath) for 4 h, and then stirred at RT overnight. The pH was adjusted to 7.4±0.2 with NaOH and the osmolarity to 280-320 mOsm with NaCl 18%. For a sterile final product, this solution was filtered through a […] film.
# The corneal levels of a PS 0.2% formulation were determined after its single topical application to the surface of the eye.
# [2] = Biodistribution of PS nanoparticles after intravitreal injection; assay type: in vivo, New Zealand white rabbits; details: New Zealand white, rabbit
# Experimental: Biodistribution of PS after intravitreal injection: PS formulated in nanoparticles as above was injected directly into the vitreous of New Zealand white rabbits. The biodistribution of PS in ocular tissues at the indicated time points post administration was determined by HPLC.
# [3] = aqueous humor, other: intravitreal, 2% PS Nanoparticle Soln., read-out: PS in Aqueous humor
# [4] = cornea, other: intravitreal, 0.2% PS Nanoparticle Soln., read-out: PS in Cornea
# [5] = cornea, other: intravitreal, 2% PS Nanoparticle Soln., read-out: PS in Cornea
# [6] = retina, other: intravitreal, 0.2% PS Nanoparticle Soln., read-out: PS in Retina
# [7] = retina, other: intravitreal, 2% PS Nanoparticle Soln., read-out: PS in Retina
# [8] = sclera, other: intravitreal, 2% PS Nanoparticle Soln., read-out: PS in Sclera
# [9] = vitreous body, other: intravitreal, 0.2% PS Nanoparticle Soln., read-out: PS in Vitreous body
structure (smiles),measurement,setting,value
"CCOP(=O)(OCC)OCCCCOC(=O)CC1=C(C)/C(=C/c2ccc([S+](C)[O-])cc2)c2ccc(F)cc21 (stereo not shown) [PS, phosphosulindac]",Cmax,[1],63.4 ± 10 µM
same,AUC(0-t),"[1]; read-out: AUC0-t, Cornea",62.6 ± 10.2 µM·h
same,MRT inf,"[1]; read-out: MRT0-inf—obs, Cornea",60 ± 6 min
same,half-life,"[1]; read-out: t1/2, Cornea (converted)",42 ± 12 min
same,concentration at 0.5 h,"[2]; aqueous humor, other: intravitreal, 0.2% PS Nanoparticle Soln., read-out: PS in Aqueous humor",0 µM
same,concentration at 0.5 h,[2]; [3],0 µM
same,concentration at 1 h,[2]; [3],1.3 µM
same,concentration at 0.5 h,[2]; [4],23.5 µM
same,concentration at 1 h,[2]; [4],22.4 µM
same,concentration at 0.5 h,[2]; [5],187 µM
same,concentration at 1 h,[2]; [5],147 µM
same,concentration at 0.5 h,[2]; [6],187 µM
same,concentration at 1 h,[2]; [6],109 µM
same,concentration at 0.5 h,[2]; [7],376 µM
same,concentration at 1 h,[2]; [7],220 µM
same,concentration at 0.5 h,"[2]; sclera, other: intravitreal, 0.2% PS Nanoparticle Soln., read-out: PS in Sclera",39.8 µM
same,concentration at 0.5 h,[2]; [8],224 µM
same,concentration at 1 h,[2]; [8],180 µM
same,concentration at 0.5 h,"[2]; vitreous body, other: intravitreal injection, 2 % PS (nanoparticle solution; injected volume not stated), 2% PS Nanoparticle Soln., read-out: PS in Vitreous body",125 µM
same,concentration at 0.5 h,[2]; [9],198 µM
same,concentration at 1 h,[2]; [9],56.2 µM
same,concentration at 1 h,"[2]; vitreous body, other: intravitreal, 2% PS Nanoparticle Soln., read-out: PS in Vitreous body",34 µM
